Assay results reported in paper PMC11881561 (Antimicrobial Agents and Chemotherapy, 2025).
Values after ≈ are worked out from the molar mass of the structure shown.

Key:
KPC-3^V240G [1] = target: T1, KPC-3^V240G (Klebsiella pneumoniae, UniProt Q9F663, H272Y/V239G); assay: Inhibition kinetics (CENTA hydrolysis, jump dilution), KPC-3 V240G; type: biochemical
Procedure: (§1) Measurements to determine kinetic parameters for hydrolysis, and kinetic parameters for inhibition were performed at ambient temperature in PBS (pH 7.4) containing 0.1 mg/mL bovine serum albumin, using a PowerWaveXS plate reader (BioTek).
(§2) Second-order rate constants (k2/K) denoting the inactivation efficiency of BLIs were determined by continuously measuring CENTA (100 µM) hydrolysis ([28]) in the presence of various concentrations of BLI. Progress curves were fit to equation 3 using GraphPad Prism, where Ai and A0 are the measured and basal absorbance, vi and vs are initial and final velocity, and t is time in seconds. k2/K was derived with equation 4. Koff was determined by the jump dilution method ([24]). Kd was estimated from the ratio between koff and k2/K.
(§3) (3) Ai=A0+vst(vi-vs)[1-e^-(kobs)t/kobs]
(§4) (4) kobs=k-2+(k2/KI)[I]/1+[S]/KM

KPC-3^D179Y/T243M [2] = target: T2, KPC-3^D179Y/T243M (Klebsiella pneumoniae, UniProt Q9F663, D178Y/H272Y/T242M); assay: Inhibition kinetics (CENTA hydrolysis, jump dilution), KPC-3 D179Y/T243M; type: biochemical
T2 sequence (Q9F663 27-293 D178Y/T242M/H272Y): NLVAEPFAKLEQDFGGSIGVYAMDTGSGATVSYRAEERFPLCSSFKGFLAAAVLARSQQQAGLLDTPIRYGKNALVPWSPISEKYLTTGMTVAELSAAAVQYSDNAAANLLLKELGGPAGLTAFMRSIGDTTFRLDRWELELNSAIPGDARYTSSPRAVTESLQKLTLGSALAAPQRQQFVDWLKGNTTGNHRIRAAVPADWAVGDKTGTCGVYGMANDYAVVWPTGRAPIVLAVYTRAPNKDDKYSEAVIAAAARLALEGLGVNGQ
Procedure: as §1, §2, §3, §4

KPC-2^V240G [3] = target: T3, KPC-2^V240G (Klebsiella pneumoniae, UniProt Q9F663, V239G); assay: Inhibition kinetics (CENTA hydrolysis, jump dilution), KPC-2 V240G; type: biochemical
T3 sequence (Q9F663 25-293 V239G): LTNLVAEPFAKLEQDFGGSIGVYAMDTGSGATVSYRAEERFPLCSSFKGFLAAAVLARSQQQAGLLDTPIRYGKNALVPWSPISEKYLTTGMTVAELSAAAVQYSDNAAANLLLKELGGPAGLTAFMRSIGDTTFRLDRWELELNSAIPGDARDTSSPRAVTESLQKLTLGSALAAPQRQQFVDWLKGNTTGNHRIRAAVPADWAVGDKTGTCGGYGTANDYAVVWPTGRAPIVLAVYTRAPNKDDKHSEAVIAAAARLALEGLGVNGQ
Procedure: as §1, §2, §3, §4

KPC-3^D179Y [4] = target: T4, KPC-3^D179Y (Klebsiella pneumoniae, UniProt Q9F663, D178Y/H272Y); assay: Inhibition kinetics (CENTA hydrolysis, jump dilution), KPC-3 D179Y; type: biochemical
T4 sequence (Q9F663 27-293 D178Y/H272Y): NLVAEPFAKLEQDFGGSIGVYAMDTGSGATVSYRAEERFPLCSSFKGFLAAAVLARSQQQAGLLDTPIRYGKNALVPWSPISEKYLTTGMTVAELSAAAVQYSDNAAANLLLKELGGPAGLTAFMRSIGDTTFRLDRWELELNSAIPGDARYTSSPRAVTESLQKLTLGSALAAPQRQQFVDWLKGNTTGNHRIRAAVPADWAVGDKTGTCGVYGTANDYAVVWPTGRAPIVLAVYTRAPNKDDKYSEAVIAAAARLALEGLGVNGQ
Procedure: as §1, §2, §3, §4

KPC-2^D179Y [5] = target: T5, KPC-2^D179Y (Klebsiella pneumoniae, UniProt Q9F663, D178Y); assay: Inhibition kinetics (CENTA hydrolysis, jump dilution), KPC-2 D179Y; type: biochemical; conditions: KPC-2 D179Y
T5 sequence (Q9F663 25-293 D178Y): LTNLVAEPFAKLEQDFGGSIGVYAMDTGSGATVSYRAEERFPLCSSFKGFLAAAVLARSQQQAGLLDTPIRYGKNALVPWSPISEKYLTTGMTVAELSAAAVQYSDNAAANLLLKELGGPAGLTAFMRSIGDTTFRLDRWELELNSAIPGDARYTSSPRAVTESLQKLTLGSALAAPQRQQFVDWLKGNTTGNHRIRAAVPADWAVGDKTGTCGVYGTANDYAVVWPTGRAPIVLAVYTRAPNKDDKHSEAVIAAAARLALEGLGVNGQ
Procedure: as §1, §2, §3, §4

KPC-3 WT [6] = target: T6, KPC-3 WT (Klebsiella pneumoniae, UniProt Q9F663, H272Y); assay: Inhibition kinetics (CENTA hydrolysis, jump dilution), KPC-3 wt; type: biochemical
T6 sequence (Q9F663 27-293 H272Y): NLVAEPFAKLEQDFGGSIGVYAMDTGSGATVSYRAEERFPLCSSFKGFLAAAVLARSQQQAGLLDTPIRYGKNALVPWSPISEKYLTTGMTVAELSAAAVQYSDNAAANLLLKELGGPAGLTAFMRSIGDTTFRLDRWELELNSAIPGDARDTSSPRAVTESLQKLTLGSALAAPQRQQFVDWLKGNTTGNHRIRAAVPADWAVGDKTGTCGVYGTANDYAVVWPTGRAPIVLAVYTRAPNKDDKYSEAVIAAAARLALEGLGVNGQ
Procedure: as §1, §2, §3, §4

KPC-2 WT [7] = target: T7, KPC-2 WT (Klebsiella pneumoniae, UniProt Q9F663); type: biochemical
T7 sequence (Q9F663 25-293 limits assumed): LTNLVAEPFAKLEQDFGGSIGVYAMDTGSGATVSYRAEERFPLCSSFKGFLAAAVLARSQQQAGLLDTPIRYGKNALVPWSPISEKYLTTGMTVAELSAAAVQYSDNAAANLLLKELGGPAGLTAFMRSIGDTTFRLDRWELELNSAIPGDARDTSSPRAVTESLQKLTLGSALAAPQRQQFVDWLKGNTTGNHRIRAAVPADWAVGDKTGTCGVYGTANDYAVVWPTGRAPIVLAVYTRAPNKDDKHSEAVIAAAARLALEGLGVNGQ
Procedure: as §1, §2, §3, §4

KPC-2^D179Y/T243M [8] = target: T8, KPC-2^D179Y/T243M (Klebsiella pneumoniae, UniProt Q9F663, D178Y/T242M); assay: Inhibition kinetics (CENTA hydrolysis, jump dilution), KPC-2 D179Y/T243M; type: biochemical; conditions: KPC-2 D179Y/T243M
T8 sequence (Q9F663 25-293 D178Y/T242M): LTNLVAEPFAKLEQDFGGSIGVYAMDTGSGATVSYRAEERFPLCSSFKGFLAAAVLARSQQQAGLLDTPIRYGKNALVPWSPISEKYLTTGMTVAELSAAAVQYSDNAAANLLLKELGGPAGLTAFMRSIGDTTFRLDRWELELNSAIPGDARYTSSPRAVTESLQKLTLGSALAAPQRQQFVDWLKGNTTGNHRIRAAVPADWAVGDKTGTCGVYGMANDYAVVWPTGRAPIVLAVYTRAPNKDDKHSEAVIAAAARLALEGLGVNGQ
Procedure: as §1, §2, §3, §4

[9] = test system: engineered E. coli strain expressing KPC-3^D179Y/T243M; assay: microbe, parasite or virus in culture; type: cell-based; conditions: Escherichia coli, BLIs at fixed 4 μg/mL
[10] = test system: engineered E. coli strain expressing KPC-2^V240G; assay: microbe, parasite or virus in culture; type: cell-based; conditions: Escherichia coli, BLIs at fixed 4 μg/mL
[11] = test system: engineered E. coli strain expressing KPC-3^V240G; assay: microbe, parasite or virus in culture; type: cell-based; conditions: Escherichia coli, BLIs at fixed 4 μg/mL
[12] = test system: engineered E. coli strain expressing KPC-2^D179Y; assay: microbe, parasite or virus in culture; type: cell-based; conditions: Escherichia coli, BLIs at fixed 4 μg/mL
[13] = test system: engineered E. coli strain expressing KPC-3^D179Y; assay: microbe, parasite or virus in culture; type: cell-based; conditions: Escherichia coli, BLIs at fixed 4 μg/mL
[14] = test system: E. coli control strain lacking a β-lactamase; assay: microbe, parasite or virus in culture; type: cell-based; conditions: Escherichia coli, no KPC expressed, BLIs at fixed 4 μg/mL
[15] = test system: engineered E. coli strain expressing KPC-2 wt; assay: microbe, parasite or virus in culture; type: cell-based; conditions: Escherichia coli; KPC-2 wt strain; BLIs at fixed 4 μg/mL
[16] = test system: E. coli strains expressing KPC-2^D179Y or KPC-2^D179Y/T243M; assay: microbe, parasite or virus in culture; type: cell-based; conditions: Escherichia coli
[17] = test system: engineered E. coli strain expressing KPC-2^D179Y/T243M; assay: microbe, parasite or virus in culture; type: cell-based; conditions: Escherichia coli, BLIs at fixed 4 μg/mL
[18] = test system: engineered E. coli strain expressing KPC-3 wt; assay: microbe, parasite or virus in culture; type: cell-based; conditions: Escherichia coli; KPC-3 wt strain; BLIs at fixed 4 μg/mL
KPC-2 WT [19] = target: T7, KPC-2 WT; conditions: substrate hydrolysis by KPC-2 WT
KPC-3 WT [20] = target: T6, KPC-3 WT; type: biochemical; conditions: substrate hydrolysis by KPC-3 WT
KPC-3^V240G [21] = target: T1, KPC-3^V240G; type: biochemical
KPC-2^D179Y/T243M [22] = target: T8, KPC-2^D179Y/T243M; assay: β-lactam hydrolysis kinetics, purified KPC-2 D179Y/T243M; type: biochemical; conditions: substrate hydrolysis by KPC-2 D179Y/T243M
Procedure: as §1
(§5) Assays to determine Michaelis-Menten kinetic parameters were performed by mixing variable amounts of enzymes (depending on the enzyme-substrate pair), with serial dilutions of different BL substrates and continuously monitoring the reduction in absorbance associated with BL hydrolysis ([28], [36], [40], [41]). Kinetic parameters were determined by plotting initial rates of hydrolysis (v) as a function of substrate concentration [S] and fitting the data to equation 1 using GraphPad Prism,
(§6) (1) v=[Et]×kcat×[S]/KM+[S]
(§7) where [Et] is the enzyme concentration, kcat the turnover number and KM the Michaelis constant.

KPC-3^D179Y/T243M [23] = target: T2, KPC-3^D179Y/T243M; assay: β-lactam hydrolysis kinetics, purified KPC-3 D179Y/T243M; type: biochemical; conditions: substrate hydrolysis by KPC-3 D179Y/T243M
Procedure: as §1, §5, §6, §7

KPC-2^V240G [24] = target: T3, KPC-2^V240G; type: biochemical
KPC-3^D179Y [25] = target: T4, KPC-3^D179Y; assay: β-lactam hydrolysis kinetics, purified KPC-3 D179Y; type: biochemical; conditions: substrate hydrolysis by KPC-3 D179Y
Procedure: as §1, §5, §6, §7

KPC-2^D179Y [26] = target: T5, KPC-2^D179Y; assay: β-lactam hydrolysis kinetics, purified KPC-2 D179Y; type: biochemical; conditions: substrate hydrolysis by KPC-2 D179Y
Procedure: as §1, §5, §6, §7

T1 sequence (Q9F663 27-293 V239G/H272Y): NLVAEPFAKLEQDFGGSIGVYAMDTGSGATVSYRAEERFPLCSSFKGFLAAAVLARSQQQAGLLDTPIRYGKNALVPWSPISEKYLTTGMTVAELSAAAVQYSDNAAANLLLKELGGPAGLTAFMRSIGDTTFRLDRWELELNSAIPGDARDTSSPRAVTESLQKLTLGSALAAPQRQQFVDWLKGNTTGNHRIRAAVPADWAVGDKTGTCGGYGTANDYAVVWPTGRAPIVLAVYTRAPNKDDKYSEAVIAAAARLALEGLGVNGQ

SMILES: NC(=O)[C@@H]1CC[C@@H]2CN1C(=O)N2OS(=O)(=O)O [AVI, avibactam]
- t1/2 (KPC-3^V240G [1]): 10.7 ± 0.1 min
- t1/2 (KPC-3^D179Y/T243M [2]): 22.5 ± 3.5 min
- t1/2 (KPC-2^V240G [3]): 21.5 ± 0.06 min
- t1/2 (KPC-3^D179Y [4]): 12.8 ± 0.9 min
- t1/2 (KPC-2^D179Y [5]): 205 ± 10 min
- t1/2 (KPC-3 WT [6]): 10.1 ± 0.1 min
- t1/2 (KPC-2 WT [7]): 21.4 ± 0.07 min
- t1/2 (KPC-2^D179Y/T243M [8]): 198 ± 8 min

SMILES: CC(C)(O/N=C(\C(=O)N[C@@H]1C(=O)N2C(C(=O)[O-])=C(C[n+]3ccccc3)CS[C@H]12)c1csc(N)n1)C(=O)O [CAZ, ceftazidime]
- MIC [9]: > 256 µg/mL
- MIC [10]: > 256 µg/mL
- MIC [11]: > 256 µg/mL
- MIC [12]: > 256 µg/mL
- MIC [13]: > 256 µg/mL
- MIC [14]: 0.5 µg/mL (≈ 0.915 µM)
- MIC [15]: 64 µg/mL (≈ 117 µM)
- MIC [16]: > 256 µg/mL
- MIC [17]: > 256 µg/mL
- MIC [18]: 256 µg/mL (≈ 468 µM)

SMILES: O=C(Cc1cccs1)N[C@@H]1C(=O)N2C(C(=O)O)=C(CSc3ccc([N+](=O)[O-])c(C(=O)O)c3)CS[C@H]12 [CENTA]
- kcat (KPC-2 WT [19]): 243 ± 11 s⁻¹
- Km (KPC-2 WT [19]; PBS pH 7.4): 19.7 ± 1.3 µM
- Km (KPC-3 WT [20]): 105 ± 24 µM
- kcat (KPC-3 WT [20]): 38 ± 3.4 s⁻¹
- Km (KPC-3^V240G [21]): 54.8 ± 8.3 µM
- kcat (KPC-3^V240G [21]): 12.7 ± 1.1 s⁻¹
- Km (KPC-2^D179Y/T243M [22]): 2.1 ± 0.3 µM
- kcat (KPC-2^D179Y/T243M [22]): (0.9 ± 0.04) × 10^−2 s^−1
- Km (KPC-3^D179Y/T243M [23]): 153 ± 25 µM
- kcat (KPC-3^D179Y/T243M [23]): 0.18 ± 0.02 s⁻¹
- Km (KPC-2^V240G [24]): 63.3 ± 2.3 µM
- kcat (KPC-2^V240G [24]): 662 ± 9.6 s⁻¹
- Km (KPC-3^D179Y [25]): 124 ± 17 µM
- kcat (KPC-3^D179Y [25]): 0.24 ± 0.02 s⁻¹
- Km (KPC-2^D179Y [26]): 1.9 ± 0.2 µM
- kcat (KPC-2^D179Y [26]): (1.2 ± 0.08) × 10^−2 s^−1
